The source of these data is patent US6399574B1 (priority 1997, dated 2002).

Where no end group is shown, it is not given here.

The target in the first data set is NMDA receptor (spermine-stimulated [^3H]MK-801 binding).
Conditions: not given
In the case of “(A^7,10,14)1-14: Con G derivative, A at 7, 10, 14, residues 15-17 deleted (GEEELQANQALIRA; ends and bridges not checked; UniProt P07231 81-97, looked up, variant E7A E10A E14A del15-17)”, the half-inhibitory concentration (IC50) came out at 232 nM. That is a sub-micromolar value.

In the case of “(A^7,10,14)6-17: Con G derivative, A at 7, 10, 14, residues 1-5 deleted (QANQALIRAKSN; ends and bridges not checked; UniProt P07231 81-97, looked up, variant del1-5 E7A E10A E14A)”, the “IC50 (μM)” value is “inactive”.

Turning to “(A^7,10,14)2-17: Con G derivative, A at 7, 10, 14, residue 1 deleted (EEELQANQALIRAKSN; ends and bridges not checked; UniProt P07231 81-97, looked up, variant del1-1 E7A E10A E14A)”, the “IC50 (μM)” value was “inactive”.

As for “A^7,Y^10: Con G derivative, A at position 7 and Y at position 10 (GEEELQANQYLIREKSN; ends and bridges not checked; UniProt P07231 81-97, looked up, variant E7A E10Y)”, the half-inhibitory concentration (IC50) amounted to 79 nM.

In turn, “(A^7,10)1-12: Con G derivative, A at 7 and 10, residues 13-17 deleted (GEEELQANQALI; ends and bridges not checked; UniProt P07231 81-97, looked up, variant E7A E10A del13-17)” gave an IC50 of 300 nM.

“A^7,10,14: Con G derivative, A at positions 7, 10 and 14 (GEEELQANQALIRAKSN; ends and bridges not checked; UniProt P07231 81-97, looked up, variant E7A E10A E14A)” returned a half-maximal inhibitory concentration (IC50) of 88 nM.

In turn, “(A^7,10,14)1-15: Con G derivative, A at 7, 10, 14, residues 16-17 deleted (GEEELQANQALIRAK; ends and bridges not checked; UniProt P07231 81-97, looked up, variant E7A E10A E14A del16-17)” gave an IC50 of 34 nM.

On to “(A^7,10,14)3-17: Con G derivative, A at 7, 10, 14, residues 1-2 deleted (EELQANQALIRAKSN; ends and bridges not checked; UniProt P07231 81-97, looked up, variant del1-2 E7A E10A E14A)”, for which the “IC50 (μM)” value is “inactive”.

As to “(A^7,10,14)4-17: Con G derivative, A at 7, 10, 14, residues 1-3 deleted (ELQANQALIRAKSN; ends and bridges not checked; UniProt P07231 81-97, looked up, variant del1-3 E7A E10A E14A)”, the “IC50 (μM)” value was “inactive”.

For the compound “(A^7,10,14)5-17: Con G derivative, A at 7, 10, 14, residues 1-4 deleted (LQANQALIRAKSN; ends and bridges not checked; UniProt P07231 81-97, looked up, variant del1-4 E7A E10A E14A)”, the “IC50 (μM)” value was “inactive”.

“(A^7,10,14)1-16: Con G derivative, A at 7, 10, 14, residue 17 deleted (GEEELQANQALIRAKS; ends and bridges not checked; UniProt P07231 81-97, looked up, variant E7A E10A E14A del17-17)” returned an IC50 of 37 nM.

“(A^7,10)1-13: Con G derivative, A at 7 and 10, residues 14-17 deleted (GEEELQANQALIR; ends and bridges not checked; UniProt P07231 81-97, looked up, variant E7A E10A del14-17)”: the IC50 came to 253 nM.

Test system in a further data set: not given
The settings on record: mouse, tissue homogenate.
The compound `CC[C@H](C)[C@H](NC(=O)[C@H](CC(N)=O)NC(=O)[C@H](CCC(=O)O)NC(=O)[C@H](CCCNC(=N)N)NC(=O)[C@H](C)NC(=O)[C@H](CC(C)C)NC(=O)[C@H](CCC(=O)O)NC(=O)[C@H](C)NC(=O)[C@H](C)NC(=O)[C@H](CCSC)NC(=O)[C@H](CCCCN)NC(=O)[C@H](C)NC(=O)[C@@H](NC(=O)[C@H](CCC(=O)O)NC(=O)[C@H](CCC(=O)O)NC(=O)[C@H](CCC(=O)O)NC(=O)CN)C(C)C)C(=O)N[C@@H](C)C(=O)N[C@@H](CCCCN)C(=O)NCC(=O)N[C@H]1CSSC[C@@H](C(=O)N[C@@H](Cc2ccc(O)cc2)C(=O)N2CCC[C@H]2C(=O)O)NC(=O)[C@H](CC(N)=O)NC(=O)[C@H](C(C)C)NC(=O)[C@H](CCCCN)NC1=O` [ECon R] displayed a half-life of 2.4 min.
